“And” between values parts separate entries of the source, which are not always exact repeats. Equal entries are not always repeated. Where two headings read alike, the source gives them in different places.
Tests used:
Yeast & Molds = test: Example 4: yeast and molds count after NaDCC and/or H2O2 pulses; assay type: cell-based; details: control 152,000
Procedure: (§1) Aqueous solutions of NaDCC at variating concentrations from 1% [w/w] up to 5% [w/w] were prepared. […] Table 5 describes various sterilants and their effects:
(§2) Each pulse with disinfectant consisted of vacuum to 1 mbar, then introduction of a sterilant to 100 mbar, 6 minutes of keeping the sterilant at that pressure, introduction of air to 500 mbar, then vacuum.

Total pathogen = test: Example 4: total pathogen count after NaDCC and/or H2O2 pulses; assay type: cell-based; details: for Total pathogen Count: control 490,000; for Fold-Reduction: versus control
Procedure: as §1, §2

yeasts & molds = test: Example 2, Table 3: yeast and mold count after hydrogen peroxide pulses with air or ozone, with or without ozone preheat; assay type: cell-based; details: HPO to 75 mbar + air to 500 mbar 40° C. one pulse, control 1,950
Procedure: (§3) In table 3, the samples were all preheated to, 40° C. Some of the samples, indicated “O3 preheat” were preheated in the presence of ozone at atmospheric pressure. […] Air was subsequently introduced to a pressure of 500 mbar. Then the chamber was evacuated.

E. Coli = details: 15% [w/w] hydrogen peroxide vapor, mean of batches 1-3
Procedure: (§4) In this example, cannabis inflorescence (200 mg) was thoroughly sterilized, then inoculated by soaking in 30 ml of microbial suspension, using each of the microbes in the amounts described in table 7 below, including a microbe mix, consisting of a mixture of all 4 microbes in the table.
(§5) After soaking each sample of inflorescence in the respective microbial suspension, each sample was air dried in a laminar flow dryer overnight for 18 hours and refrigerated until sterilization was initiated. Inflorescence was sterilized 24, 48 and 72 hours post inoculation, designated batch 1, batch 2 and batch 3, respectively. Microbial load analysis was performed after each sterilization day. Samples were also inoculated, and not sterilized, to serve as controls. A saline solution was applied to some of the samples instead of a microbial suspension, to serve as a control.
(§6) Analysis of microbial count was performed to samples before and after sterilization, and each microbe count was determined using sub-samples of […] each from each sample, and was performed in triplicate. The sub-samples were ground in 20 ml of saline solution, seeded in a petri dish with agar, which were then incubated at 37° C. for 48 hours, for counting of colonies, to determine number of colony forming units (CFU) per cannabis sample. Logarithmic reduction of pathogen as compared to non-sterilized sample was determined.
(§7) Samples of cannabis inflorescence (200 mg) were introduced into a vacuum chamber in either a top tray or a middle tray. The top tray was located in the uppermost location in the chamber, where the highest temperature is measured. The temperature was set to be maintained at 50° C., however, due to the fact that heat rises within the chamber, and that sterilant solution was introduced to the chamber as a vapor having a temperature of about 140-150° C., in some of the experiments the temperature in the uppermost chamber reached 54° C.±1° C. and in some 58° C.±2° C. Two or three pulses of disinfection were performed for each sample, and the results are described in Table 8. In each pulse, pressure was reduced to 3±2 mbar. […] Then, air was added and pressure was maintained at 500 mbar for 6 minutes at that pressure. The air was then removed from the chamber and the pressure reduced to 3±2 mbar. This process constitutes one pulse. One or two additional pulses were performed for samples, for a total of two pulses per sample, or three pulses per sample. In the final pulse, after initiating a vacuum, air was then introduced and the chamber was […] to a pressure of 1 atmosphere.
(§8) For each pathogen, mean log reduction was calculated by log10 transformation of CFU values, analyzing each microbial treatment process separately. Sterilization processes were compared with a 1-way ANOVA on log transformed data.

Candida albicans = details: for mean log reduction: 15% [w/w] hydrogen peroxide vapor, mean of batches 1-3
Procedure: as §4, §5, §6, §7, §8

Aspergillus brasiliensis = details: for mean log reduction: 15% [w/w] hydrogen peroxide vapor, mean of batches 1-3
Procedure: as §4, §5, §6, §7, §8

Microbe mix (all 4) = details: 15% [w/w] hydrogen peroxide vapor, mean of batches 1-3
Procedure: as §4, §5, §6, §7, §8

Pseudomonas aeruginosa = details: 15% [w/w] hydrogen peroxide vapor, mean of batches 1-3
Procedure: as §4, §5, §6, §7, §8

total count [1] = test: Example 2, Table 3: total count after hydrogen peroxide pulses with air or ozone, with or without ozone preheat; assay type: cell-based; details: HPO to 75 mbar + air to 500 mbar 40° C. one pulse, control 130,000
Procedure: as §3

yeast and mold = details: hydrogen peroxide solution 50% in water, 40° C. 40 ml + 1 m; control 20,800; listed as H2O2
Procedure: (§9) A control sample was used, which was not treated, to show microbial load before treatment.
(§10) In each of the trials above, the H2O2 solution was introduced over a period of 3 minutes until a pressure of 70-100 mbar, by introduction of 4 injections, each injection of 10 ml. […] Some of the batches indicating “vent 700” were slowly vented to 700 mbar with air.

total count [2] = details: hydrogen peroxide solution 50% in water, control 208,800
Procedure: as §9, §10

Yeast & Mold = details: for Yeast & Mold: HPO to 60 mbar 6 minutes, air 500 mbar 6 minutes, 40°, control 1,150,000; for Yeast & Mold Fold-Reduction: versus control
Procedure: (§11) For two of the samples, no preheating was performed, and for two of the samples, preheating was performed. Preheating involved warming the plant matter in the chamber at 40° C. for 5 minutes. Either one or two pulses of sterilant were performed. All pulses were performed at 40°. Before each pulse, the pressure in the chamber was reduced to 1 mbar.
(§12) Then, air was added and pressure was maintained at 500 mbar for 6 minutes.

total count [3] = details: for Total Count: HPO to 60 mbar 6 minutes, air 500 mbar 6 minutes, 40°, control 1,350,000; for Total Count Fold-Reduction: versus control
Procedure: as §11, §12

[4] = Preheat (40° C. for 5 minutes), one pulse
[5] = Preheat (40° C. for 5 minutes), two pulses

O=c1nc([O-])n(Cl)c(=O)n1Cl.[Na+] [NaDCC, Sodium dichloroisocyanurate]
Yeast & Molds Count (Yeast & Molds; NaDCC 1% [w/w], 1 pulse): 10,857 | Yeast & Molds Count (Yeast & Molds; NaDCC 1% [w/w], 2 pulses): 5,553 | Yeast & Molds Count (Yeast & Molds; NaDCC 2% [w/w], 1 pulse): 7,600 | Yeast & Molds Count (Yeast & Molds; NaDCC 2% [w/w], 2 pulses): 3,436 | Yeast & Molds Count (Yeast & Molds; NaDCC 5% [w/w], 1pulse): 10,133 | Yeast & Molds Count (Yeast & Molds; NaDCC 5% [w/w], 2 pulses): 12,667 | Total pathogen Count (Total pathogen; NaDCC 1% [w/w], 1 pulse): 35,100 | Fold-Reduction (Total pathogen; NaDCC 1% [w/w], 1 pulse): 14 | Total pathogen Count (Total pathogen; NaDCC 1% [w/w], 2 pulses): 17,900 | Fold-Reduction (Total pathogen; NaDCC 1% [w/w], 2 pulses): 27 | Total pathogen Count (Total pathogen; NaDCC 2% [w/w], 1 pulse): 24,500 | Fold-Reduction (Total pathogen; NaDCC 2% [w/w], 1 pulse): 20 | Total pathogen Count (Total pathogen; NaDCC 2% [w/w], 2 pulses): 11,075 | Fold-Reduction (Total pathogen; NaDCC 2% [w/w], 2 pulses): 44 | Total pathogen Count (Total pathogen; NaDCC 5% [w/w], 1pulse): 32,667 | Fold-Reduction (Total pathogen; NaDCC 5% [w/w], 1pulse): 15 | Total pathogen Count (Total pathogen; NaDCC 5% [w/w], 2 pulses): 40,833 | Fold-Reduction (Total pathogen; NaDCC 5% [w/w], 2 pulses): 12

OO [hydrogen peroxide]
Yeast & Molds Count (Yeast & Molds; 50% H2O2, 2 pulses): 2,492 | Y&M (yeasts & molds; sample weight 100 gr): 100 cfu/ml | Y&M (yeasts & molds; sample weight 300 gr): 30 cfu/ml | mean log reduction (E. Coli; 2 pulses, Middle tray): 3.5 | mean log reduction (E. Coli; 2 pulses, Top tray): 3.5 | mean log reduction (E. Coli; 3 pulses, Middle tray): 4.3 | mean log reduction (E. Coli; 3 pulses, Top tray): 4.8 | mean log reduction (Candida albicans; 2 pulses, Middle tray): 2.8 | mean log reduction (Candida albicans; 2 pulses, Top tray): 6.3 | mean log reduction (Candida albicans; 3 pulses, Middle tray): 6.0 | mean log reduction (Candida albicans; 3 pulses, Top tray): 6.3 | reduction in microbial count (Candida albicans; top tray, both 2 and 3 pulses): ≥ 6 fold | mean log reduction (Aspergillus brasiliensis; 2 pulses, Middle tray): 2.0 | mean log reduction (Aspergillus brasiliensis; 2 pulses, Top tray): 3.3 | mean log reduction (Aspergillus brasiliensis; 3 pulses, Middle tray): 2.2 | mean log reduction (Aspergillus brasiliensis; 3 pulses, Top tray): 3.3 | reduction in microbial count after treatment (Aspergillus brasiliensis; sterilized at 24 hours post inoculation): 5 log | mean log reduction (Microbe mix (all 4); 2 pulses, Middle tray): 2.8 | mean log reduction (Microbe mix (all 4); 2 pulses, Top tray): 5.5 | mean log reduction (Microbe mix (all 4); 3 pulses, Middle tray): 5.1 | mean log reduction (Microbe mix (all 4); 3 pulses, Top tray): 7.0 | mean log reduction (Pseudomonas aeruginosa; 2 pulses, Middle tray): 3.7 | mean log reduction (Pseudomonas aeruginosa; 2 pulses, Top tray): 5.3 | mean log reduction (Pseudomonas aeruginosa; 3 pulses, Middle tray): 4.7 | mean log reduction (Pseudomonas aeruginosa; 3 pulses, Top tray): 7.2 | Total pathogen Count (Total pathogen; 50% H2O2, 2 pulses): 8,033 | Fold-Reduction (Total pathogen; 50% H2O2, 2 pulses): 61 | TC (total count [1]; sample weight 100 gr): 11,000 cfu/ml | TC (total count [1]; sample weight 300 gr): 48,000 cfu/ml | Y&M (yeast and mold): 2,600 cfu/ml and 2,500 cfu/ml | TC (total count [2]; 30° C. 40 ml, 200 g inflorescence): 31,000 cfu/ml | TC (total count [2]; 40° C. 40 ml + 1 m + Vent700, listed as H2O2): 12,000 cfu/ml and 19,000 cfu/ml | TC (total count [2]; 40° C. 40 ml, listed as H2O2): 15,000 cfu/ml and 10,000 cfu/ml | Yeast & Mold (Yeast & Mold; No preheat, one pulse): 19,828 cfu/ml | Yeast & Mold Fold-Reduction (Yeast & Mold; No preheat, one pulse): 58 | Yeast & Mold (Yeast & Mold; No preheat, two pulses): 3,249 cfu/ml | Yeast & Mold Fold-Reduction (Yeast & Mold; No preheat, two pulses): 354 | Yeast & Mold (Yeast & Mold; [4]): 3,433 cfu/ml | Yeast & Mold (Yeast & Mold; [5]): 415 cfu/ml | Yeast & Mold Fold-Reduction (Yeast & Mold; Preheat, one pulse): 335 | Yeast & Mold Fold-Reduction (Yeast & Mold; Preheat, two pulses): 2,770 | Total Count (total count [3]; No preheat, one pulse): 5,556 cfu/ml | Total Count Fold-Reduction (total count [3]; No preheat, one pulse): 243 | Total Count (total count [3]; No preheat, two pulses): 3,082 cfu/ml | Total Count Fold-Reduction (total count [3]; No preheat, two pulses): 438 | Total Count (total count [3]; [4]): 2,316 cfu/ml | Total Count (total count [3]; [5]): 1,028 cfu/ml | Total Count Fold-Reduction (total count [3]; Preheat, one pulse): 583 | Total Count Fold-Reduction (total count [3]; Preheat, two pulses): 1,313 | decontamination, reduction of microbes (total count [3]; pre-heating stage and two sterilant pulses combined): over 3 orders of magnitude

— patent US20240307575A1, “METHODS FOR […] MATTER” (priority 2021, published 2024)
